Experimental data: the kinase profiling compilation of Christmann-Franck et al. (2016)
Several values for one entry are separate records, joined by “and”; a condition that tells them apart may be missing. Equal entries are not always repeated.

Assays:
Assay in all cases: radiometric filter-binding kinase assay, Kinase HotSpot
Conditions in all cases: compound 0.5 µM; ATP 10 µM
BMX (human) = BMX (human) (UniProt P51813)
NTRK1 (human) = NTRK1 (human) (UniProt P04629)
ROCK1 (human) = ROCK1 (human) (UniProt Q13464)
GSK3A (human) = GSK3A (human) (UniProt P49840)
EPHB2 (human) = EPHB2 (human) (UniProt P29323)
IRAK1 (human) = IRAK1 (human) (UniProt P51617)
CSK (human) = CSK (human) (UniProt P41240)
STK10 (human) = STK10 (human) (UniProt O94804)
LTK (human) = LTK (human) (UniProt P29376)
HCK (human) = HCK (human) (UniProt P08631)
NEK1 (human) = NEK1 (human) (UniProt Q96PY6)
LRRK2 (human) = LRRK2 (human) (UniProt Q5S007)
STK17A (human) = STK17A (human) (UniProt Q9UEE5)
TSSK2 (human) = TSSK2 (human) (UniProt Q96PF2)
GRK7 (human) = GRK7 (human) (UniProt Q8WTQ7)
PAK7 (human) = PAK7 (human) (UniProt Q9P286)
CAMK2B (human) = CAMK2B (human) (UniProt Q13554)
RIPK2 (human) = RIPK2 (human) (UniProt O43353)
ZAP70 (human) = ZAP70 (human) (UniProt P43403)
EPHA4 (human) = EPHA4 (human) (UniProt P54764)
PRKD2 (human) = PRKD2 (human) (UniProt Q9BZL6)
RPS6KB1 (human) = RPS6KB1 (human) (UniProt P23443)
PIM2 (human) = PIM2 (human) (UniProt Q9P1W9)
PRKG2 (human) = PRKG2 (human) (UniProt Q13237)
CDC42BPA (human) = CDC42BPA (human) (UniProt Q5VT25)
NEK7 (human) = NEK7 (human) (UniProt Q8TDX7)
STK25 (human) = STK25 (human) (UniProt O00506)
SRC (human) = SRC (human) (UniProt P12931)
ROCK2 (human) = ROCK2 (human) (UniProt O75116)
DAPK1 (human) = DAPK1 (human) (UniProt P53355)
CLK2 (human) = CLK2 (human) (UniProt P49760)
TNK2 (human) = TNK2 (human) (UniProt Q07912)
OXSR1 (human) = OXSR1 (human) (UniProt O95747)
MAP3K11 (human) = MAP3K11 (human) (UniProt Q16584)
AKT2 (human) = AKT2 (human) (UniProt P31751)
PRKG1 (human) = PRKG1 (human) (UniProt Q13976)
DMPK (human) = DMPK (human) (UniProt Q09013)
MAP4K2 (human) = MAP4K2 (human) (UniProt Q12851)
PAK4 (human) = PAK4 (human) (UniProt O96013)
CDK3 CCNE1 (human) = CDK3 CCNE1 (human) (UniProt Q00526+P24864)
ALK (human) = ALK (human) (UniProt Q9UM73)
LYN (human) = LYN (human) (UniProt P07948)

Chain of DMPK (human) (Q09013 whole entry, looked up): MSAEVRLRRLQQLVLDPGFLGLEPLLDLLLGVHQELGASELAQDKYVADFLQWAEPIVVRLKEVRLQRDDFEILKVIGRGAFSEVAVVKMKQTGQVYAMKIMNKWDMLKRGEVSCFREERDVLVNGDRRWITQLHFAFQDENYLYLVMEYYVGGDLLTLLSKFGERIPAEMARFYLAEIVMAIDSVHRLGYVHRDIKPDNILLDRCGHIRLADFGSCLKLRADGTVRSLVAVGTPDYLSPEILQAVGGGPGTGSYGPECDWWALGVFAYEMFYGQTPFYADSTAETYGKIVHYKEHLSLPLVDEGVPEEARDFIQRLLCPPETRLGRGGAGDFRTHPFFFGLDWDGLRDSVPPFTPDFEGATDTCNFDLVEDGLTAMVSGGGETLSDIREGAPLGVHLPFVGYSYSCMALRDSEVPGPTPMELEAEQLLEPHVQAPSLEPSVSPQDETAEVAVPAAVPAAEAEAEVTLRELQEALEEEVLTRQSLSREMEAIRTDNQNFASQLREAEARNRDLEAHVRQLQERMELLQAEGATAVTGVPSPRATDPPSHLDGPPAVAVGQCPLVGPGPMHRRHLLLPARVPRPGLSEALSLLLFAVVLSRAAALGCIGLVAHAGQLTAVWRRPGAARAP
Chain of NTRK1 (human) (P04629 whole entry, looked up): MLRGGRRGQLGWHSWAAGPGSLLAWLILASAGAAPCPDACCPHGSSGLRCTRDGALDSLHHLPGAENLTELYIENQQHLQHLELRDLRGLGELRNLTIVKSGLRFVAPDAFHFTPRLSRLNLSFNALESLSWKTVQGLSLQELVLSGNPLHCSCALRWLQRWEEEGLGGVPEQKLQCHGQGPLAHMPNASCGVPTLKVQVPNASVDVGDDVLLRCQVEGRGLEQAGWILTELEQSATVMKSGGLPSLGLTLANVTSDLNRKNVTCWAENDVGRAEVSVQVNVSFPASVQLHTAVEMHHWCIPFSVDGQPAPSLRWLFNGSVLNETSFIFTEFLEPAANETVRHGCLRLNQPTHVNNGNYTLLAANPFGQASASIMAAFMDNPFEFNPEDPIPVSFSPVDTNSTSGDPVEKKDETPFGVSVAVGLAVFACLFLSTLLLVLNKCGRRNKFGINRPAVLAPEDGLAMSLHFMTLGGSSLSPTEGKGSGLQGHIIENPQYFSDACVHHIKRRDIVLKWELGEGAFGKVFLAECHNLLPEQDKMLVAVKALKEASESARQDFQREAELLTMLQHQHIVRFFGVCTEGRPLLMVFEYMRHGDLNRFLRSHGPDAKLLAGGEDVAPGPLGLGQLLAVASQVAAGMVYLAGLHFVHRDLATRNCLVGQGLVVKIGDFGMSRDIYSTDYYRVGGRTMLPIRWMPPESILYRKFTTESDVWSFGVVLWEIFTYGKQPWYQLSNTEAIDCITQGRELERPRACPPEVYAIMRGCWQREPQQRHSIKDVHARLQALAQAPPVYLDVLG
Chain of CDK3 CCNE1 (human) (P24864 whole entry, looked up): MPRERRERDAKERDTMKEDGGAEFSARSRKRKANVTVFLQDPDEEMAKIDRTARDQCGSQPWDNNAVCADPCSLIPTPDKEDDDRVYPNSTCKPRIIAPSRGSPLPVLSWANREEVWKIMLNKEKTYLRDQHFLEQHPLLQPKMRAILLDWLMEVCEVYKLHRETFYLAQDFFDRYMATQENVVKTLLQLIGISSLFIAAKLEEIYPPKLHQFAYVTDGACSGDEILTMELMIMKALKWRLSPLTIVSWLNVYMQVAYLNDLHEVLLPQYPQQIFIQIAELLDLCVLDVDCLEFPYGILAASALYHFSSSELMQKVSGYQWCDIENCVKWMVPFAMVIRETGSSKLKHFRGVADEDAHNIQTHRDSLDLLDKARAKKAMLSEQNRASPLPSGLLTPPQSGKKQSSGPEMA
Chain of CDK3 CCNE1 (human) (Q00526 whole entry, looked up): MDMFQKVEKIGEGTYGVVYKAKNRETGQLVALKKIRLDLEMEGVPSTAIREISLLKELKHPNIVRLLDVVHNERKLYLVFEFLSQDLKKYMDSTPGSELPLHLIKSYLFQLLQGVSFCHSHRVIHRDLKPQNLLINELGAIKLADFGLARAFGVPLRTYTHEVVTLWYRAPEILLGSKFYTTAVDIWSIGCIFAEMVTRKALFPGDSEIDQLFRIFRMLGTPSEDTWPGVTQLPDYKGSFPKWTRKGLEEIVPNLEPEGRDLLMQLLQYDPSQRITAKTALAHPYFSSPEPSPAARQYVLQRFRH
Chain of PAK4 (human) (O96013 whole entry, looked up): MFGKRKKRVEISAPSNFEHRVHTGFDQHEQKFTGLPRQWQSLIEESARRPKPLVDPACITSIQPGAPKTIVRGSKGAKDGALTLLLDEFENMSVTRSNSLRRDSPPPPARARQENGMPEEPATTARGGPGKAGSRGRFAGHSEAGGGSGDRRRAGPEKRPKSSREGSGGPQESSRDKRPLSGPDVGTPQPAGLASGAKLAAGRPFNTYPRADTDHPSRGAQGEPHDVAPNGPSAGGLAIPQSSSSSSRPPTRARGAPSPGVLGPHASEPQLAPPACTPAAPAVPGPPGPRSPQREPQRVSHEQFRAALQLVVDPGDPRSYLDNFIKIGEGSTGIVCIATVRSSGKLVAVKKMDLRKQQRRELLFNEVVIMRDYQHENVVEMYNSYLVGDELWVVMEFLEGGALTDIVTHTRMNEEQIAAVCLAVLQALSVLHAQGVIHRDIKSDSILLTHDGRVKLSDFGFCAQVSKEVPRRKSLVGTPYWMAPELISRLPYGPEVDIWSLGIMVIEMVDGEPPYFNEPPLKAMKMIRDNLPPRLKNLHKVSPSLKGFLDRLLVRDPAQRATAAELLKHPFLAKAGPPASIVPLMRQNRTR
Chain of ROCK2 (human) (O75116 whole entry, looked up): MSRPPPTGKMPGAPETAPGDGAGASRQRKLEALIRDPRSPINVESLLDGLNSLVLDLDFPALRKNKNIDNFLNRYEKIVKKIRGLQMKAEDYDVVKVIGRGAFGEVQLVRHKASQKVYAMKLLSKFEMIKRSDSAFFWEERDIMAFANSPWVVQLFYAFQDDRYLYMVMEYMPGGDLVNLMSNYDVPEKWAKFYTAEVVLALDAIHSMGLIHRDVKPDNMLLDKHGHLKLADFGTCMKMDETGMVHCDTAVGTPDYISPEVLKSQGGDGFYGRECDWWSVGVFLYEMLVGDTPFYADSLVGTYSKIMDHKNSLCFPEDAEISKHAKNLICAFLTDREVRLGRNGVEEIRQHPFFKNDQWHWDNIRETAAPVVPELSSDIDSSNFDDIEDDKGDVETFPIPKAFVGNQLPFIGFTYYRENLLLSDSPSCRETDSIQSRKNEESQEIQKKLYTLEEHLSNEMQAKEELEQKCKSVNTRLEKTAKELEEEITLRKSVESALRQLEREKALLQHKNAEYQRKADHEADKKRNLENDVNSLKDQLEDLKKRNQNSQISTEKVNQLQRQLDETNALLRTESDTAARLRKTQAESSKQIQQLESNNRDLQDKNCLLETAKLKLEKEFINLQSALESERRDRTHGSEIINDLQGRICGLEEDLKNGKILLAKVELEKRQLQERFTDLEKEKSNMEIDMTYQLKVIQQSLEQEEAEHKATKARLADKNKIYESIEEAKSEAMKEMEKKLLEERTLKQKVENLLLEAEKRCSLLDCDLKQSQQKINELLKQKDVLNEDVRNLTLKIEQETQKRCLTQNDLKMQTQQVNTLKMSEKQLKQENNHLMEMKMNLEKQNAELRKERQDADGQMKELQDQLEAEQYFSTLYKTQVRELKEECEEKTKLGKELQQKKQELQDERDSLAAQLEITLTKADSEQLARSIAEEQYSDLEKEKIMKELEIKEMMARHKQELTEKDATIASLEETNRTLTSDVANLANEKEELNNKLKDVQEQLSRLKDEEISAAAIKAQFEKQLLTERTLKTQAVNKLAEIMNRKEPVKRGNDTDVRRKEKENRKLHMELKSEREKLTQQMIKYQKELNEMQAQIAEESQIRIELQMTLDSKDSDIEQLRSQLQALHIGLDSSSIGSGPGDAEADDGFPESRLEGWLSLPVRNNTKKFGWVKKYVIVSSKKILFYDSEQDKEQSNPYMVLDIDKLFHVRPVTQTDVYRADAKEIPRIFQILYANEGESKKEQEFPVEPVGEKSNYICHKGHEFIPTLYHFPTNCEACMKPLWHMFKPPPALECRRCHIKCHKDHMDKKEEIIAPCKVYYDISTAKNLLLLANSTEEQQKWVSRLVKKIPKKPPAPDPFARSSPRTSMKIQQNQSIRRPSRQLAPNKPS
Chain of CLK2 (human) (P49760 whole entry, looked up): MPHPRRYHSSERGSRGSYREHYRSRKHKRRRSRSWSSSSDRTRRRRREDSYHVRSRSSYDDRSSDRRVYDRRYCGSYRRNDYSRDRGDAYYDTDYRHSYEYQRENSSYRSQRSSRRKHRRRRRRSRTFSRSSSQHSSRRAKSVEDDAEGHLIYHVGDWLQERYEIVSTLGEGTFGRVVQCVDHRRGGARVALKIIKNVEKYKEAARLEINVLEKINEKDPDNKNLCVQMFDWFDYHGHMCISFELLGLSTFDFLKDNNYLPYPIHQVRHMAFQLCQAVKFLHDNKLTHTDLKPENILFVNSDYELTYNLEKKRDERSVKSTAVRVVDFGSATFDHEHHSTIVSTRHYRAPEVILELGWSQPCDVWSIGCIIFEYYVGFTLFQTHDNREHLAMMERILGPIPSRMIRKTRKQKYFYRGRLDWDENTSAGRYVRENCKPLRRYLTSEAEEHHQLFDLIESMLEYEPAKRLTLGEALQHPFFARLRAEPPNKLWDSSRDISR
Chain of PIM2 (human) (Q9P1W9 whole entry, looked up): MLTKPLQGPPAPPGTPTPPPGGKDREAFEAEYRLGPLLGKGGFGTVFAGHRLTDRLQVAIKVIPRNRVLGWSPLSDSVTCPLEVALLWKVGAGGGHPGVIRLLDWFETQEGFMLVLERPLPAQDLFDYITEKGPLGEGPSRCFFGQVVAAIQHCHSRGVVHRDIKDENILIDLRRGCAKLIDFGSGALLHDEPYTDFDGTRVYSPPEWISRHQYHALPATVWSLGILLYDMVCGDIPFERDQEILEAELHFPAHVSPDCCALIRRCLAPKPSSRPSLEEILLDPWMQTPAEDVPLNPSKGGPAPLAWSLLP

Cn1cc(/C=C2\C(=O)Nc3ccc(S(N)(=O)=O)cc32)c2ccccc21
residual activity (BMX (human)): 77%
residual activity (NTRK1 (human)): 6.15%
residual activity (ROCK1 (human)): 63.8%
residual activity (GSK3A (human)): 100%
residual activity (EPHB2 (human)): 84.8%
residual activity (IRAK1 (human)): 14.2%
residual activity (CSK (human)): 89.3%
residual activity (STK10 (human)): 17%
residual activity (LTK (human)): 54.5%
residual activity (HCK (human)): 50%
residual activity (NEK1 (human)): 68.5%
residual activity (LRRK2 (human)): 9.76%
residual activity (STK17A (human)): 57.5%
residual activity (TSSK2 (human)): 84%
residual activity (GRK7 (human)): 20.9%
residual activity (PAK7 (human)): 75.3%
residual activity (CAMK2B (human)): 86.5%
residual activity (RIPK2 (human)): 74.3%
residual activity (ZAP70 (human)): 102%
residual activity (EPHA4 (human)): 80.5%
residual activity (PRKD2 (human)): 87.2%
residual activity (RPS6KB1 (human)): 44.3%
residual activity (PIM2 (human)): 101%
residual activity (PRKG2 (human)): 85%
residual activity (CDC42BPA (human)): 70.7%
residual activity (NEK7 (human)): 101%
residual activity (STK25 (human)): 83.5%
residual activity (SRC (human)): 45.1%
residual activity (ROCK2 (human)): 41%
residual activity (DAPK1 (human)): 98.9%
residual activity (CLK2 (human)): 38.1%
residual activity (TNK2 (human)): 72.3%
residual activity (OXSR1 (human)): 93.7%
residual activity (MAP3K11 (human)): 9.89%
residual activity (AKT2 (human)): 88.6%
residual activity (PRKG1 (human)): 81.1% and 87.2%
residual activity (DMPK (human)): 106%
residual activity (MAP4K2 (human)): 17.4%
residual activity (PAK4 (human)): 86.2%
residual activity (CDK3 CCNE1 (human)): 90.3%
residual activity (ALK (human)): 72.1%

N#CCCc1ccc2c(c1)-c1[nH]c3ccc([N+](=O)[O-])cc3c1CC(=O)N2
residual activity (BMX (human)): 99.5%
residual activity (NTRK1 (human)): 115%
residual activity (ROCK1 (human)): 38.9%
residual activity (GSK3A (human)): 0.804%
residual activity (EPHB2 (human)): 98.5%
residual activity (IRAK1 (human)): 74.9%
residual activity (CSK (human)): 96.3%
residual activity (STK10 (human)): 74.1%
residual activity (LTK (human)): 80%
residual activity (HCK (human)): 63.8%
residual activity (NEK1 (human)): 132%
residual activity (LRRK2 (human)): 73.8%
residual activity (STK17A (human)): 46.8%
residual activity (TSSK2 (human)): 78.7%
residual activity (GRK7 (human)): 97.7%
residual activity (PAK7 (human)): 60.3%
residual activity (CAMK2B (human)): 99.3%
residual activity (RIPK2 (human)): 21.5%
residual activity (ZAP70 (human)): 106%
residual activity (EPHA4 (human)): 85.2%
residual activity (PRKD2 (human)): 94.2%
residual activity (RPS6KB1 (human)): 98%
residual activity (PIM2 (human)): 104%
residual activity (PRKG2 (human)): 93.9%
residual activity (CDC42BPA (human)): 73.1%
residual activity (NEK7 (human)): 87.4%
residual activity (STK25 (human)): 91.1%
residual activity (SRC (human)): 30.8%
residual activity (ROCK2 (human)): 28.6%
residual activity (DAPK1 (human)): 96.5%
residual activity (CLK2 (human)): 104%
residual activity (TNK2 (human)): 75.4%
residual activity (OXSR1 (human)): 94.6%
residual activity (MAP3K11 (human)): 18.4%
residual activity (AKT2 (human)): 100%
residual activity (PRKG1 (human)): 88.4% and 99.3%
residual activity (DMPK (human)): 89.8%
residual activity (MAP4K2 (human)): 14%
residual activity (PAK4 (human)): 86.4%
residual activity (CDK3 CCNE1 (human)): 39.7%
residual activity (ALK (human)): 78.8%

N/C(=N\N=C/c1ccc(-c2cccc([N+](=O)[O-])c2)o1)N[N+](=O)[O-]
residual activity (BMX (human)): 90.1%
residual activity (NTRK1 (human)): 96%
residual activity (ROCK1 (human)): 91.7%
residual activity (GSK3A (human)): 108%
residual activity (EPHB2 (human)): 84.6%
residual activity (CSK (human)): 98.5%
residual activity (STK10 (human)): 99.6%
residual activity (LTK (human)): 102%
residual activity (HCK (human)): 114%
residual activity (NEK1 (human)): 97.7%
residual activity (LRRK2 (human)): 91%
residual activity (STK17A (human)): 100%
residual activity (LYN (human)): 96.3% and 99.4%
residual activity (TSSK2 (human)): 101%
residual activity (GRK7 (human)): 97%
residual activity (PAK7 (human)): 97%
residual activity (CAMK2B (human)): 100%
residual activity (RIPK2 (human)): 106%
residual activity (ZAP70 (human)): 93.1%
residual activity (PRKD2 (human)): 94.3%
residual activity (RPS6KB1 (human)): 100%
residual activity (PIM2 (human)): 106%
residual activity (PRKG2 (human)): 98.7%
residual activity (CDC42BPA (human)): 87.3%
residual activity (NEK7 (human)): 102%
residual activity (STK25 (human)): 86.3%
residual activity (SRC (human)): 99%
residual activity (ROCK2 (human)): 86.3%
residual activity (DAPK1 (human)): 97.8%
residual activity (CLK2 (human)): 88.3%
residual activity (TNK2 (human)): 99.9%
residual activity (OXSR1 (human)): 102%
residual activity (MAP3K11 (human)): 99.4%
residual activity (AKT2 (human)): 99.7%
residual activity (PRKG1 (human)): 87.4% and 95.8%
residual activity (DMPK (human)): 102%
residual activity (MAP4K2 (human)): 115%
residual activity (PAK4 (human)): 95.3%
residual activity (CDK3 CCNE1 (human)): 85%
residual activity (ALK (human)): 93.6%

CN[C@@H]1C[C@H]2O[C@@](C)([C@@H]1OC)n1c3ccccc3c3c4c(c5c6ccccc6n2c5c31)C(=O)NC4
residual activity (CSK (human)): 8.01%
residual activity (LTK (human)): 0.543%
residual activity (HCK (human)): 3.26%
residual activity (NEK1 (human)): 3.99%
residual activity (LYN (human)): 1.18% and 5.72%
residual activity (GRK7 (human)): 0.737%
residual activity (CAMK2B (human)): 1.64%
residual activity (SRC (human)): 1.46%
residual activity (DMPK (human)): 4.83%
residual activity (CDK3 CCNE1 (human)): 8.24%
residual activity (ALK (human)): 0.859%

COc1cc2c(Nc3ccc(Br)cc3F)ncnc2cc1OCC1CCN(C)CC1
residual activity (BMX (human)): 88.4%
residual activity (NTRK1 (human)): 104%
residual activity (ROCK1 (human)): 99.4%
residual activity (GSK3A (human)): 103%
residual activity (EPHB2 (human)): 24.4%
residual activity (IRAK1 (human)): 87.7%
residual activity (CSK (human)): 54.4%
residual activity (STK10 (human)): 21.3%
residual activity (LTK (human)): 64.6%
residual activity (NEK1 (human)): 123%
residual activity (LRRK2 (human)): 113%
residual activity (STK17A (human)): 92.4%
residual activity (LYN (human)): 10.8% and 16.7%
residual activity (TSSK2 (human)): 95.9%
residual activity (GRK7 (human)): 96.4%
residual activity (PAK7 (human)): 93.5%
residual activity (CAMK2B (human)): 98.2%
residual activity (RIPK2 (human)): 23.4%
residual activity (ZAP70 (human)): 96.8%
residual activity (PRKD2 (human)): 92%
residual activity (PIM2 (human)): 99.4%
residual activity (PRKG2 (human)): 101%
residual activity (CDC42BPA (human)): 83.7%
residual activity (NEK7 (human)): 99%
residual activity (STK25 (human)): 99%
residual activity (SRC (human)): 11%
residual activity (ROCK2 (human)): 90.7%
residual activity (DAPK1 (human)): 105%
residual activity (CLK2 (human)): 89.7%
residual activity (TNK2 (human)): 85.4%
residual activity (OXSR1 (human)): 100%
residual activity (MAP3K11 (human)): 100%
residual activity (AKT2 (human)): 110%
residual activity (PRKG1 (human)): 96.6% and 99.8%
residual activity (DMPK (human)): 94.6%
residual activity (PAK4 (human)): 90.2%
residual activity (CDK3 CCNE1 (human)): 92.9%
